{
  "source": "patent US20090155875A1",
  "about": "“Methods to Enhance Carbon Monoxide Dehydrogenase Activity and Uses Thereof” (priority 2005, published 2009)",
  "key": {"CODH": {"system": "CODH", "sequence (P31896 2-639)": "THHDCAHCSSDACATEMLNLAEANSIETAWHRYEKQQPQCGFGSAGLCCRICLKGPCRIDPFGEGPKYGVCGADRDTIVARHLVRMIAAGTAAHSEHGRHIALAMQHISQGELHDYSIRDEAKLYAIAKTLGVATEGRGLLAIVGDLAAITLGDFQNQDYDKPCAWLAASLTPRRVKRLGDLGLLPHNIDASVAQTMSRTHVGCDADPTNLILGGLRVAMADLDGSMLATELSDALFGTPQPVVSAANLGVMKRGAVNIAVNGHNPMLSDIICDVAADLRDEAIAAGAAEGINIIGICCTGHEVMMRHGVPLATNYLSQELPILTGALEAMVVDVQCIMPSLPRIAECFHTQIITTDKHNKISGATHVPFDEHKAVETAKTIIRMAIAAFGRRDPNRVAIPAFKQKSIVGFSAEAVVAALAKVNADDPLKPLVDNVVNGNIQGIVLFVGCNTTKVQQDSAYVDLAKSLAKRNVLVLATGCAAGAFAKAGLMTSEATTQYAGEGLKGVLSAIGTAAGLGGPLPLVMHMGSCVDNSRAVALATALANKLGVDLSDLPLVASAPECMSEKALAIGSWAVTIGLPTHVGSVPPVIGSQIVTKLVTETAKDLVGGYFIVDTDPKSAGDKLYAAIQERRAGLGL", "experiment": "CODH activity by reduction of methyl viologen coupled to CO oxidation (absorption at 578 nm)", "format": "biochemical, R. rubrum", "description": "CODH activity was determined by the reduction of methyl viologen coupled to CO oxidation and the concomitant absorption at 578 nm by UV spectrophotometry. CODH activity was measured in an anaerobic reaction mixture containing 50 mM Tris-HCl, 2 mM methyl viologen and 2 mM dithiothreitol at pH 8.7 (Maness, P. C. and Weaver, P. F. (2002) Int. J. Hydrogen Energy 27:1407-11). The cell free, CODH-enriched fraction was prepared as described (Maness, P. C. and Weaver, P. F. (2001) Appl. Microbiol. Biotechnol. 57:751-6). The supernatant was used as the source of CODH enzyme."}, "Hydrogenase": {"system": "Hydrogenase", "experiment": "Hydrogenase activity in whole cells by H2 evolution (gas chromatography)", "format": "cell-based, R. rubrum", "description": "Hydrogenase activity was determined using whole cells by measuring H2 evolution in an anaerobic reaction mixture containing 2 mM methyl viologen, 0.1% (w/v) Triton X-100 and 50 mM potassium phosphate buffer at pH 7.0. The reaction was initiated by adding 5 mM sodium dithionite. The reaction was incubated 15 minutes at 30° C. in a shaking water bath. The reaction was terminated by addition of 0.1 ml 10% (w/v) tricholoroacetic acid. Hydrogen in the gas phase was determined by gas chromatography as described in Maness, P. C. and Weaver, P. F. (2001) Appl. Microbiol. Biotechnol. 57:751-6."}},
  "data": [
    {"substance": "hemoglobin: human α- and β-globin chains encoded in pHE2 plasmid; purified from E. coli and added, or expressed in the cells", "values": [
      {"measurement": "CODH activity", "setting": "CODH; addition of hemoglobin (soluble, final 1.5 μM heme), untreated 17.76±2.85, p<9×10^−6", "value": "32.41±4.03 μmol methyl viologen reduction/min/ml"},
      {"measurement": "CODH activity", "setting": "CODH; expression of hemoglobin in the cells (pHE2 plasmid, IPTG induced), p<0.005", "value": "29.60±7.30 μMol methyl viologen reduction/min/ml"},
      {"measurement": "hydrogenase activity", "setting": "Hydrogenase; expression of hemoglobin in the cells, p<0.02", "value": "250.4±89.1 nMol H2/min/mg cell dry weight"},
      {"measurement": "hydrogenase activity", "setting": "Hydrogenase; first statement, printed as 'hemoglobin expression', untreated 137.6±15.0, p<2×10^−6", "value": "266.9±27.0 nMol H2/min/mg cell dry weight"}
    ]}
  ]
}
